Experiments:
[1] = Clinical trials on healthy volunteers evaluating the effect of food on oral absorption; assay type: in vivo; conditions: for required dose relative to the product of Example 5 to obtain the same absorption: absorption = area under the curve of plasma SR 57746 concentrations; for absorption with a meal versus on an empty stomach: oral, area under the curve of plasma SR 57746 concentrations
Description: The results obtained in vitro were confirmed in vivo by comparing the observations made in two clinical trials on healthy volunteers, the first trial evaluating the effect of food on the oral absorption of the SR 57746 A obtained according to EP 0 101 381, and the second trial evaluating the effect of food on the oral absorption of the SR 57746 A of Example 5 below. In both the trials, the criterion for evaluation of the absorption was the area under the curve of the plasma SR 57746 concentrations as a function of time.

CACO-2 monolayer = CACO-2 monolayer model, in vitro absorption (dissolution and permeability); assay type: in vitro ADME; conditions: Hanks' solution supplemented with 10% of fetal calf serum and taurocholic acid
Protocol: A study concerning the determination of the in vitro absorption of the microparticles according to the present invention was carried out using the CACO-2 monolayer model.

[2] = system: amyotrophic lateral sclerosis; conditions: 2 mg/day; cited from earlier work
[3] = Phase I clinical trials on healthy volunteers, oral administration; assay type: in vivo; conditions: administered orally
Description: EP 0 101 381 describes SR 57746 in the form of the hydrochloride, hereafter called SR 57746 A, and this salt was used in preclinical and clinical trials on healthy volunteers (Phase I). According to said document, SR 57746 is isolated by crystallization from ethanol, especially absolute ethanol.

[4] = Preclinical trials: animal pharmacology, toxicology and pharmacokinetic studies; set-up: species or system animals; conditions: in vivo

Cl.FC(F)(F)c1cccc(C2=CCN(CCc3ccc4ccccc4c3)CC2)c1 [1-[2-(2-naphthyl)ethyl]-4-(3-trifluoromethylphenyl)-1,2,3,6-tetrahydropyridine hydrochloride]
required dose relative to the product of Example 5 to obtain the same absorption ([1]; administered on an empty stomach): about nine times greater | required dose relative to the product of Example 5 to obtain the same absorption ([1]; administered with a meal): three to four times greater | absorption with a meal versus on an empty stomach ([1]; hydrochloride): two to three times greater

Cl.FC(F)(F)c1cccc(C2=CCN(CCc3ccc4ccccc4c3)CC2)c1 [Example 5]
dissolution and permeability (CACO-2 monolayer): rendered uniform | absorption with a meal versus on an empty stomach [1]: the absorption is the same

Cl.FC(F)(F)c1cccc(C2=CCN(CCc3ccc4ccccc4c3)CC2)c1 [SR 57746 A, 1-[2-(2-naphthyl)ethyl]-4-(3-trifluoromethylphenyl)-1,2,3,6-tetrahydropyridine hydrochloride]
clinical outcome in amyotrophic lateral sclerosis [2]: proved promising | variability in the plasma concentrations and the pharmacodynamic effects [3]: high variability

FC(F)(F)c1cccc(C2=CCN(CCc3ccc4ccccc4c3)CC2)c1 [SR 57746, 1-[2-(2-Naphthyl)ethyl]-4-(3-trifluoromethylphenyl)-1,2,3,6-tetrahydropyridine]
activity and behavior in animal pharmacology and toxicology tests [4]: constant activity and behavior | pharmacokinetic studies on animals [4]: constant and reproducible results

From patent publication US20100021541A1, “Microparticulate form of a Tetrahydropyridine derivative” (SANOFI-AVENTIS, priority 1996, published 2010)
